Reference: paper PMC6440977, “Nucleoside analogue activators of cyclic AMP-independent protein kinase A of Trypanosoma” (Nature Communications, 2019)
Several values for one entry are separate records, joined by “and”; a condition that tells them apart may be missing. Equal values may be shown once. Read-outs that look alike come from different tables or passages of the source.

Key:
[1] = target: T. brucei PKA (Trypanosoma brucei brucei, UniProt Q9GU80); test: In vivo PKA reporter assay (VASP Ser-157 phosphorylation, western blot); format: cell-based; settings: for % VASP phosphorylation: independent replicates; for effect on in vivo PKA activity (VASP phosphorylation), in words: wild type background;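 on % VASP phosphorylation: Phosphorylated VASP as percent of total VASP band signal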;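 on all read-outs here: T. brucei cells expressing human VASP as heterologous PKA substrate, compound exposure at 37 °C, western blot of phospho (50 kDa) versus unphosphorylated (46 kDa) VASP band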
[2] = test system: T. brucei PKA holoenzyme (Ty1-PKAC1); format: biochemical, Trypanosoma brucei
[3] = target: T. brucei PKAR-PKAC1 holoenzyme (Trypanosoma brucei, UniProt Q9GU80); test: biochemical; format: biochemical; settings: for In vitro kinase assay: technical replicates
[4] = test system: T. brucei ∆pkar/∆pkar (pkar KO) cells; test: microbe, parasite or virus in culture; format: cell-based, Trypanosoma brucei
[5] = test system: T. brucei BSF cells (WT); test: Alamar blue cell viability assay, wild type; settings: read-out: EC50, Alamar blue cell viability assay, WT; individual replicate results; wild type cells;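 further: trypanosomes seeded at 5×10^3 per ml and grown 72 h with compound, then resazurin 0.5 mM added for 4 h as the viability read-out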

T. brucei PKAR-PKAC1 holoenzyme, sequence (Q38DR5 entry or part of it): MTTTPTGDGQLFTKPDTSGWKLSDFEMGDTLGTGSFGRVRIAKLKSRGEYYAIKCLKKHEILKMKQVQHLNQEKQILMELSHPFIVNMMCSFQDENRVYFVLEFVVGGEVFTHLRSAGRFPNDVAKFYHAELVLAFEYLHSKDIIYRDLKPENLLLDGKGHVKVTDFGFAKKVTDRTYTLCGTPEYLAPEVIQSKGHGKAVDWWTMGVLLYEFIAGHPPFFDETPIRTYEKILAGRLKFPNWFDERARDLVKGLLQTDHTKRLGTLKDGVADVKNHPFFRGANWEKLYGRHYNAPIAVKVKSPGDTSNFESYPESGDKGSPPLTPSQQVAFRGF
T. brucei PKAR-PKAC1 holoenzyme, sequence (Q9GU80 entry or part of it): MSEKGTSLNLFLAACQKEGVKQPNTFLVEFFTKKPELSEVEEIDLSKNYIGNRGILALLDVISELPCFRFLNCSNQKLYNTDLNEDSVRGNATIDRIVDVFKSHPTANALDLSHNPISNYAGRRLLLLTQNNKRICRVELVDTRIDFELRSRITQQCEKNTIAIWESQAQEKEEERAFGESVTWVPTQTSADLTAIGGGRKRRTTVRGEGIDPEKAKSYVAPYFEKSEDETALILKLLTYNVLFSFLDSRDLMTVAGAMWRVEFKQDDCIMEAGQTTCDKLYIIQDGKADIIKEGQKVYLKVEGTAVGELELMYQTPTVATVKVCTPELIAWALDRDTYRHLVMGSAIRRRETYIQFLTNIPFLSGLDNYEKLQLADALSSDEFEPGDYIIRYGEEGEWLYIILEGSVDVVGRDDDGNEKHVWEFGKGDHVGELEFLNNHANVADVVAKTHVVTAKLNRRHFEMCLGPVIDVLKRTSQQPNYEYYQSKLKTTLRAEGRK
T. brucei PKA, sequence (Q38DS1 entry or part of it): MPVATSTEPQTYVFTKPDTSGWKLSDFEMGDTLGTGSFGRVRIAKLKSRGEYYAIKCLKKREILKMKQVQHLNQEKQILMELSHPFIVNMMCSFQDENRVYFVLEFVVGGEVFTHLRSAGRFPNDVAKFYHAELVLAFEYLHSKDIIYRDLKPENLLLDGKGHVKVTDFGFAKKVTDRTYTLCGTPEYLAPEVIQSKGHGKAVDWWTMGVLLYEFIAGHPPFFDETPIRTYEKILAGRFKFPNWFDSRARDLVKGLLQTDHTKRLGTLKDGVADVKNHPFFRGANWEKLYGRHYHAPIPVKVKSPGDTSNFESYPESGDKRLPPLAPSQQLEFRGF
T. brucei PKA, sequence (Q38DR5 entry or part of it, further chain): as the sequence (Q38DR5 entry or part of it) above
T. brucei PKA, sequence (Q9GU80 entry or part of it): as the sequence (Q9GU80 entry or part of it) above

With `Nc1nc2c(nc(Sc3ccc(Cl)cc3)n2[C@@H]2O[C@@H]3COP(=O)(O)O[C@H]3[C@H]2O)c(=O)[nH]1` [8-pCPT-cGMP, 8-(4-Chlorophenylthio)guanosine-3',5'-cyclic monophosphate] the “% VASP phosphorylation” value ([1]; 10 µM) was 25.8142% and 29.2369% and 19.6808%, the “% VASP phosphorylation” value ([1]; 50 µM) was 27.9869% and 31.8421% and 17.4767% and the “% VASP phosphorylation” value ([1]; 100 µM) was 30.4284% and 21.992% and 28.117%. For the same compound, the “% VASP phosphorylation” value ([1]; 250 µM) was 30.7048% and 20.4067% and 21.3305% and the “% VASP phosphorylation” value ([1]; 1000 µM) was 32.0969% and 20.8683% and 24.288%.

For `Nc1ncnc2c1cc(Br)n2[C@@H]1O[C@H](CO)[C@@H](O)[C@H]1O` [6-Br-Tu, 8-Bromo-7-deazaadenosine], the “effect on in vivo PKA activity (VASP phosphorylation), in words” value (shortened to “effect on in vivo PKA activity”) [1] was “no effect”.

In the case of `Nc1ncnc2c1nc(Sc1ccc(Cl)cc1)n2[C@@H]1O[C@@H]2COP(=O)([O-])O[C@H]2[C@H]1O.[Na+]` [8-pCPT-cAMP, 8-(4-Chlorophenylthio)adenosine-3',5'-cyclic monophosphate], the “% VASP phosphorylation” value ([1]; 10 µM) is reported as 24.5763% and 23.1009% and 28.0286%, the “% VASP phosphorylation” value ([1]; 50 µM) is reported as 16.5457% and 18.6378% and 24.8744% and the “% VASP phosphorylation” value ([1]; 100 µM) is reported as 10.9425% and 13.8058% and 25.7149%. The “% VASP phosphorylation” value ([1]; 250 µM) was 9.807% and 10.2688% and 23.6208%, the “% VASP phosphorylation” value ([1]; 1000 µM) was 10.7438% and 15.1961% and 19.6401% and the “effect on in vivo PKA activity” value [1] was “No PKA activation”.

For `O=c1[nH]cnc2c1ncn2[C@@H]1O[C@@H]2COP(=O)(O)O[C@H]2[C@H]1O` [cIMP, inosine-3’,5’-cyclic monophosphate], the “effect on basal kinase activity of immunoprecipitated holoenzyme, in words” value ([2]; 1 mM) was “did not show any significant effects”, the “in vitro kinase assay [CPM], PKI” value ([2]; 1 mM + 5 µM PKI(5-24), Supp Fig 3c) was 620.6 CPM and the “in vitro kinase assay [CPM], average” value ([2]; 1 mM, Supp Fig 3c, average of 3) was 7285.53 CPM. The “in vitro kinase assay [CPM]” value ([2]; 1 mM, Supp Fig 3c, independent replicates) was 5568.4 CPM and 8615.56 CPM and 7672.63 CPM.

For `Nc1ncnc2c1ccn2[C@@H]1O[C@H](CO)[C@@H](O)[C@H]1O` [Tubercidin, 7-Deazaadenosine], the “effect on in vivo PKA activity” value [1] was “No effect”, the EC50 [3] was 5 ± 0.5 µM and the “In vitro kinase assay” value ([3]; 0.1 µM) was 0.31 U/ml and 0.36 U/ml. The “In vitro kinase assay” value ([3]; 0.78 µM) was 0.36 U/ml and 0.39 U/ml, the “In vitro kinase assay” value ([3]; 1.56 µM) was 0.39 U/ml and 0.42 U/ml and the “In vitro kinase assay” value ([3]; 3.13 µM) was 0.51 U/ml and 0.54 U/ml. The “In vitro kinase assay” value ([3]; 6.25 µM) was 0.7 U/ml and 0.67 U/ml, the “In vitro kinase assay” value ([3]; 12.5 µM) was 0.84 U/ml and 0.75 U/ml and the “In vitro kinase assay” value ([3]; 25 µM) was 0.84 U/ml and 0.93 U/ml. The “In vitro kinase assay” value ([3]; 50 µM) was 0.89 U/ml and 0.85 U/ml.

`OCCN(CCO)c1nc(N2CCCCC2)c2nc(N(CCO)CCO)nc(N3CCCCC3)c2n1` [Dipy] was tested, and the EC50 ([4]; individual replicate results; pkar KO cells; read-out: EC50, Alamar blue cell viability assay, KO) was 12.4 µM and 21.9 µM and 24.9 µM and 25.2 µM and 9.93 µM and 13.6 µM and 21.1 µM and 14.9 µM and 8.89 µM and 13.3 µM and 13.1 µM and the EC50 [5] was 12.1 µM and 6.38 µM and 10.7 µM and 10.6 µM and 10.9 µM and 16.8 µM and 6.54 µM and 7.48 µM and 7.07 µM and 13.4 µM and 7.42 µM.

`Nc1ncnc2c1nc(Sc1ccc(Cl)cc1)n2[C@@H]1O[C@H](CO)[C@@H](O)[C@H]1O` [8-pCPT-Ado, 8-(4-Chlorophenylthio)adenosine] was tested, and the “effect on in vivo PKA activity” value [1] was “slight inhibitory”.

With `Nc1nc(Cl)nc2c1ncn2[C@@H]1O[C@H](CO)[C@@H](O)[C@H]1O` [2-Cl-Ado, 2-Chloroadenosine] the “effect on in vivo PKA activity” value [1] was “no effect”.

In the case of `Nc1ncnc2nc(Sc3ccc(Cl)cc3)[nH]c12` [8-pCPT-Ade, 8-(4-Chlorophenylthio)adenine], the “effect on in vivo PKA activity” value [1] is reported as “no effect”.

`COC1C2OP(=O)(O)OCC2OC1n1c(Sc2ccc(Cl)cc2)nc2c(=O)[nH]c(N)nc21` (stereo not shown) [8-pCPT-2'O-me-cGMP] was tested, and the “% VASP phosphorylation” value ([1]; 10 µM) was 38.4582% and 35.5972% and 37.6064%, the “% VASP phosphorylation” value ([1]; 20 µM) was 40.2883% and 38.6651% and 38.3333% and the “% VASP phosphorylation” value ([1]; 50 µM) was 40.3308% and 52.7132% and 36.328%. The “% VASP phosphorylation” value ([1]; 100 µM) was 39.4763% and 48.2408% and 35.1104% and the “% VASP phosphorylation” value ([1]; 250 µM) was 43.9368% and 67.0264% and 36.1457%.

For `Nc1ncnc2c1nc(Br)n2[C@@H]1O[C@H](CO)[C@@H](O)[C@H]1O` [8-Br-Ado, 8-Bromoadenosine], the “effect on in vivo PKA activity” value [1] was “no effect”.

With `OC[C@H]1O[C@@H](n2cnc3c(Cl)ncnc32)[C@H](O)[C@@H]1O` [6-Cl-PuR, 6-Chloropurine riboside] the “% VASP phosphorylation” value ([1]; 2 µM) was 27.0392% and 26.6154% and 24.2815%, the “% VASP phosphorylation” value ([1]; 5 µM) was 24.7092% and 27.9877% and 23.4187% and the “% VASP phosphorylation” value ([1]; 10 µM) was 20.6897% and 25.2945% and 23.0524%. For the same compound, the “% VASP phosphorylation” value ([1]; 20 µM) was 24.6262% and 26.5882% and 23.4334%, the “% VASP phosphorylation” value ([1]; 50 µM) was 28.7467% and 26.8897% and 25.4464% and the “% VASP phosphorylation” value ([1]; 100 µM) was 33.239% and 35.1611% and 28.0731%. The “effect on in vivo PKA activity” value [1] was “no effect”.

For `Nc1ncnc2c1c(I)cn2[C@@H]1O[C@H](CO)[C@@H](O)[C@H]1O` [5ITu], the EC50 ([4]; read-out: EC50, Alamar blue cell viability assay, KO; individual replicate results; pkar KO cells) was 0.365 µM and 0.366 µM and 0.542 µM and 0.168 µM and 0.345 µM and 0.276 µM and 0.265 µM and 0.448 µM and the EC50 [5] was 0.134 µM and 0.378 µM and 0.467 µM and 0.417 µM and 0.291 µM and 0.39 µM and 0.317 µM and 0.247 µM.
